Some test systems named below: HOP-92 NSCLC; LOX IMVI melanoma; MCF7 breast; MOLT-4 leukemia; NCI-H226 lung; OVCAR-3 ovarian; OVCAR-4 ovarian; OVCAR-8 ovarian; RPMI-8226 leukemia; U251 CNS.
Experiment in all cases: NCI tumour cell line growth inhibition, 48 h

“And” between values parts separate entries of the source, which are not always exact repeats. Identical values can stand only once.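 Cultured in 96-well plates, cells were exposed to test compound for 48 hours across five concentrations. Here, GI50 denotes the concentration required for 50% inhibition of growth. TGI is the concentration that stops growth completely.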 Where a SMILES comes first, the peptide text is derived from it. [ ]: non-standard residue; d: D form. The star is where a group is joined. ξ: configuration not given here. X16 = COC1=CC(=O)N(C(=O)C(O*)C(C)C)C1Cc1ccccc1; ξNMe2Val = CC(C)C(C(=O)*)N(C)C; NMeV = CN[CH](C(=O)O)C(C)C Some results are limits rather than exact numbers.

For `Nc1cc2c(cc1[N+](=O)[O-])[nH]c1c(-c3ccccc3)nccc12`, the TGI with HOP-92 NSCLC was 42.7 µM; with LOX IMVI melanoma, 28.8 µM; in the assay with MCF7 breast, over 64.1 µM; with MOLT-4 leukemia, 19.8 µM; in the assay on NCI-H226 lung, 56.5 µM; in the assay with OVCAR-3 ovarian, 48.5 µM. Further, the TGI in the assay with OVCAR-4 ovarian was 50.6 µM; with OVCAR-8 ovarian it was over 100 µM; with RPMI-8226 leukemia, over 100 µM; in the assay with U251 CNS, 55.4 µM.

`COC1=CC(=O)N(C(=O)C(OC(=O)C2CCCN2C(=O)C2CCCN2C(=O)C(C(C)C)N(C)C(=O)C(NC(=O)C(C(C)C)N(C)C)C(C)C)C(C)C)C1Cc1ccccc1` (centres undefined) (ξNMe2Val-V[NMeV]PP-X16; configuration not given here): the GI50 in the assay on HOP-92 NSCLC was 0.000954 µM; in the assay on LOX IMVI melanoma, under 0.0004 µM; in the assay on MCF7 breast, under 0.0004 µM; with MOLT-4 leukemia, under 0.0004 µM; in the assay with NCI-H226 lung it was 0.000406 µM; with OVCAR-3 ovarian it was under 0.0004 µM. In addition, the GI50 in the assay with OVCAR-4 ovarian was 0.663 µM; in the assay on OVCAR-8 ovarian it was under 0.0004 µM; in the assay with RPMI-8226 leukemia, under 0.0004 µM; in the assay with U251 CNS, under 0.0004 µM. Also, the TGI in the assay with LOX IMVI melanoma is over 4 µM; with MCF7 breast it was over 4 µM; with NCI-H226 lung, 1.54 µM; with OVCAR-3 ovarian it was 0.00383 µM and < 0.0004 µM; with OVCAR-4 ovarian, over 4 µM; with RPMI-8226 leukemia, over 4 µM. Besides, the TGI in the assay on U251 CNS came out at 0.0109 µM.

In the case of `CC1(C)CCc2c(cc3c(c2O)CCC(C)(C)O3)O1`, the TGI in the assay with MCF7 breast, in the assay with MOLT-4 leukemia, in the assay with NCI-H226 lung, with OVCAR-3 ovarian, in the assay on OVCAR-4 ovarian and in the assay with OVCAR-8 ovarian was over 100 µM in each case. This molecule also yielded a TGI in the assay on U251 CNS of over 100 µM.

For `CCOc1ncn(-c2ccc(NC(=S)Nc3cccc(O)c3)cc2)n1`, the TGI in the assay with HOP-92 NSCLC, in the assay with LOX IMVI melanoma, with MCF7 breast, in the assay with MOLT-4 leukemia, in the assay on OVCAR-3 ovarian and with OVCAR-4 ovarian was over 100 µM throughout. The TGI in the assay with OVCAR-8 ovarian, in the assay on RPMI-8226 leukemia and in the assay with U251 CNS was over 100 µM throughout.

Regarding `ClCCN(CCCl)Cc1ccc(Nc2ccnc3cc(Cl)ccc23)cc1`, the GI50 in the assay with MCF7 breast is 0.588 µM; with MOLT-4 leukemia, 0.416 µM; with NCI-H226 lung it was 1.41 µM; with RPMI-8226 leukemia, 1.72 µM. Moreover, the TGI in the assay on MCF7 breast stood at 9.34 µM; with MOLT-4 leukemia, 2.78 µM; with NCI-H226 lung, 3.78 µM; with RPMI-8226 leukemia, 5.41 µM.

As to `COc1ccc2c(O)c3[n+](cc2c1OC)CCc1cc2c(cc1-3)OCO2`, the TGI in the assay with HOP-92 NSCLC, in the assay with LOX IMVI melanoma, in the assay with MCF7 breast, in the assay with MOLT-4 leukemia, with NCI-H226 lung and in the assay with OVCAR-3 ovarian was over 100 µM in each case. Moreover, the TGI in the assay on OVCAR-4 ovarian, in the assay with OVCAR-8 ovarian, in the assay with RPMI-8226 leukemia and in the assay with U251 CNS was over 100 µM throughout.

As to `C=C/C(C)=C/[C@H](C)C(=O)C[C@H](O)CC1CC(=O)NC(=O)C1`, the TGI was over 89.6 µM with HOP-92 NSCLC; over 100 µM in the assay with LOX IMVI melanoma; over 100 µM in the assay with MCF7 breast; over 100 µM in the assay with MOLT-4 leukemia; over 100 µM in the assay with NCI-H226 lung; over 100 µM with OVCAR-3 ovarian. Also, the TGI with OVCAR-4 ovarian, in the assay on OVCAR-8 ovarian, in the assay on RPMI-8226 leukemia and with U251 CNS was over 100 µM throughout.

As for `Cc1ccc(OP2(=O)Oc3ccc4ccccc4c3CN2c2ccc(Cl)cc2)cc1C` (centres undefined), the TGI with HOP-92 NSCLC, in the assay with LOX IMVI melanoma, in the assay on MCF7 breast, in the assay on MOLT-4 leukemia, in the assay on NCI-H226 lung and in the assay with OVCAR-3 ovarian was over 100 µM throughout. Moreover, the TGI in the assay on OVCAR-4 ovarian, in the assay on OVCAR-8 ovarian, with RPMI-8226 leukemia and in the assay on U251 CNS was over 100 µM throughout.

On to `COC[C@H]1C(=O)NCC(=O)N2NCCC[C@H]2C(=O)N(O)[C@H](C)C(=O)O[C@@H](C(C)C)[C@H](NC(=O)[C@](C)(O)[C@]2(O)CC[C@@H](CC(C)C)[C@H](C)O2)C(=O)N2NCCC[C@@H]2C(=O)N1O`, for which the GI50 is 0.0161 µM with HOP-92 NSCLC, under 0.01 µM in the assay on MOLT-4 leukemia, under 0.01 µM in the assay with OVCAR-8 ovarian and under 0.01 µM in the assay with U251 CNS. Moreover, the TGI with HOP-92 NSCLC came to 0.0377 µM; with MOLT-4 leukemia it was 0.0464 µM; in the assay with OVCAR-8 ovarian, 0.0306 µM; with U251 CNS it was 0.0216 µM.

(Values after PubChem BioAssay (NCI).)
